Assays:
Human betaherpesvirus 5 [1] = assay: Antiviral activity against recombinant HCMV AD169 expressing GFP infected in human foreskin fibroblasts measured after 7 days by GFP-based multi-round replication assay; format: functional, organism-based; details: Human betaherpesvirus 5, strain AD169, 168 h
Plasmodium falciparum [2] = assay: Antimalarial activity against ring stage Plasmodium falciparum 3D7 infected in type A-positive human erythrocytes after 72 hrs by SYBR green 1 dye-based fluorescence assay; format: functional, organism-based; details: 3D7, 72 h
Human betaherpesvirus 5 [3] = assay: Potency index, ratio of betulinic acid EC50 to compound EC50 for antiviral activity against recombinant HCMV AD169 expressing GFP infected in human foreskin fibroblasts; format: functional, strain AD169
Human betaherpesvirus 5 [4] = assay: Potency index, ratio of artesunic acid EC50 to compound EC50 for antiviral activity against recombinant HCMV AD169 expressing GFP infected in human foreskin fibroblasts; format: functional, strain AD169
Plasmodium falciparum [5] = assay: Potency index, ratio of betulinic acid EC50 to compound EC50 for antimalarial activity against ring stage Plasmodium falciparum 3D7 infected in type A-positive human erythrocytes; format: functional
Plasmodium falciparum [6] = assay: Potency index, ratio of betulin EC50 to compound EC50 for antimalarial activity against ring stage Plasmodium falciparum 3D7 infected in type A-positive human erythrocytes; format: functional

Row | SMILES | EC50 (Human betaherpesvirus 5 [1]) [nM] | EC50 (Plasmodium falciparum [2]) [nM] | Ratio EC50 (Human betaherpesvirus 5 [3]) | Ratio EC50 (Human betaherpesvirus 5 [4]) | Ratio EC50 (Plasmodium falciparum [5]) | Ratio EC50 (Plasmodium falciparum [6])
1 | C=C(C)[C@@H]1CC[C@]2(C(=O)O)CC[C@]3(C)[C@H](CC[C@@H]4[C@@]5(C)CC[C@H](O)C(C)(C)[C@@H]5CC[C@]43C)[C@@H]12 [BETULINIC ACID] | 3620 | 1420 | – | – | – | –
2 | CCN(CC)CCCC(C)Nc1ccnc2cc(Cl)ccc12 (stereo not given) [CHLOROQUINE PHOSPHATE] | – | 8.3 | – | – | – | –
3 | C=C(C)[C@@H]1CC[C@]2(C(=O)O)CC[C@]3(C)[C@H](CC[C@@H]4[C@@]5(C)CC[C@H](OC(=O)CCC(=O)O[C@@H]6O[C@@H]7O[C@@]8(C)CC[C@H]9[C@H](C)CC[C@@H]([C@H]6C)[C@@]79OO8)C(C)(C)[C@@H]5CC[C@]43C)[C@@H]12 | 240 | 85 | 15 | 23 | 16 | –
4 | C[C@H]1[C@@H](O)O[C@@H]2O[C@@]3(C)CC[C@H]4[C@H](C)CC[C@@H]1[C@@]24OO3 [ARTENIMOL] | > 10000 | 2.6 | – | – | – | –
5 | C=C(C)[C@@H]1CC[C@]2(CO)CC[C@]3(C)[C@H](CC[C@@H]4[C@@]5(C)CC[C@H](O)C(C)(C)[C@@H]5CC[C@]43C)[C@@H]12 [BETULIN] | 1990 | 3940 | – | – | – | –
6 | C=C(C)[C@@H]1CC[C@]2(COC(=O)CCC(=O)O[C@@H]3O[C@@H]4O[C@@]5(C)CC[C@H]6[C@H](C)CC[C@@H]([C@H]3C)[C@@]46OO5)CC[C@]3(C)[C@H](CC[C@@H]4[C@@]5(C)CC[C@H](O)C(C)(C)[C@@H]5CC[C@]43C)[C@@H]12 | 880 | 255 | – | – | – | 20

Source: ChEMBL document CHEMBL4371023, “Synthesis of new betulinic acid/betulin-derived dimers and hybrids with potent antimalarial and antiviral activities” (Bioorg Med Chem, 2019)
